In publication PMC11844072, “Novel 5,6-dichlorobenzimidazole derivatives as dual BRAFWT and BRAFV600E inhibitors: design, synthesis, anti-cancer activity and molecular dynamics simulations” (BMC Chemistry, 2025):

Legend:
Assay in all cases: NCI 60 single concentration growth inhibition
Type in all cases: cell-based, human
[1] = test system: HCT-116; conditions: Homo sapiens, HCT-116, Colon cancer, read-out: GI%
Procedure, shortened: (§1)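 For the single-dose testing, a 10 µM concentration was applied for 48 h. Adherent lines were fixed with cold TCA, stained with SRB and read at 515 nm, and the result was reported as percent growth versus untreated cells.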

[2] = test system: RXF 393; conditions: Homo sapiens, RXF 393, Renal cancer, read-out: GI%
Procedure, shortened: as §1

[3] = test system: T-47D; conditions: Homo sapiens, T47D, Breast cancer, read-out: GI%
Procedure, shortened: as §1

[4] = test system: 786-0; conditions: Homo sapiens, 786-0, Renal cancer, read-out: GI%
Procedure, shortened: as §1

[5] = test system: MOLT-4; conditions: Homo sapiens, MOLT-4, Leukemia, read-out: GI%
Procedure, shortened: (§2)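 Single-dose screen at 10 µM across the NCI-60 panel, then five concentrations (10-fold or ½ log dilutions) for selected compounds. Cells in RPMI 1640, 5% FBS, 2 mM L-glutamine, preincubated 24 h, then drug exposure 48 h at 37 °C. TCA fixation, SRB stain read at 515 nm; percent growth calculated against time-zero and untreated controls.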

[6] = test system: MCF7; conditions: Homo sapiens, MCF7, Breast cancer, read-out: GI%
Procedure, shortened: as §1

[7] = test system: SK-MEL-2; conditions: Homo sapiens, SK-MEL-2, Melanoma, read-out: GI%
Procedure, shortened: as §1

[8] = test system: OVCAR-5; conditions: Homo sapiens, OVCAR-5, Ovarian cancer, read-out: GI%
Procedure, shortened: as §1

[9] = test system: A549/ATCC; conditions: Homo sapiens, Non-small cell lung cancer, read-out: GI%
Procedure, shortened: as §1

[10] = test system: MDA-MB-231/ATCC; conditions: Homo sapiens, Breast cancer, read-out: GI%
Procedure, shortened: as §1

[11] = test system: SF-539; conditions: Homo sapiens, SF-539, CNS cancer, read-out: GI%
Procedure, shortened: as §1

[12] = test system: SR; conditions: Homo sapiens, Leukemia, read-out: GI%
Procedure, shortened: as §2

[13] = test system: HS 578T; conditions: Homo sapiens, Breast cancer, read-out: GI%
Procedure, shortened: as §1

[14] = test system: OVCAR-8; conditions: Homo sapiens, OVCAR-8, Ovarian cancer, read-out: GI%
Procedure, shortened: as §1

[15] = test system: MDA-MB-435; conditions: Homo sapiens, MDA-MB-435, Melanoma, read-out: GI%
Procedure, shortened: as §1

[16] = test system: SK-MEL-28; conditions: Homo sapiens, SK-MEL-28, Melanoma, read-out: GI%
Procedure, shortened: as §1

[17] = test system: M14; conditions: Homo sapiens, M14, Melanoma, read-out: GI%
Procedure, shortened: as §1

[18] = test system: KM12; conditions: Homo sapiens, KM12, Colon cancer, read-out: GI%
Procedure, shortened: as §1

[19] = test system: NCI-H226; conditions: Homo sapiens, NCI-H226, Non-small cell lung cancer, read-out: GI%
Procedure, shortened: as §1

[20] = test system: CCRF-CEM; conditions: Homo sapiens, Leukemia, read-out: GI%
Procedure, shortened: as §1

[21] = test system: SK-MEL-5; conditions: Homo sapiens, SK-MEL-5, Melanoma, read-out: GI%
Procedure, shortened: as §1

[22] = test system: SF-268; conditions: Homo sapiens, SF-268, CNS cancer, read-out: GI%
Procedure, shortened: as §1

| SMILES | inhibition at 10 µM [1] [%] | inhibition at 10 µM [2] [%] | inhibition at 10 µM [3] [%] | inhibition at 10 µM [4] [%] | inhibition at 10 µM [5] [%] | inhibition at 10 µM [6] [%] | inhibition at 10 µM [7] [%] | inhibition at 10 µM [8] [%] | inhibition at 10 µM [9] [%] | inhibition at 10 µM [10] [%] | inhibition at 10 µM [11] [%] | inhibition at 10 µM [12] [%] | inhibition at 10 µM [13] [%] | inhibition at 10 µM [14] [%] | inhibition at 10 µM [15] [%] | inhibition at 10 µM [16] [%] | inhibition at 10 µM [17] [%] | inhibition at 10 µM [18] [%] | inhibition at 10 µM [19] [%] | inhibition at 10 µM [20] [%] | other results |
| --- | --- | --- | --- | --- | --- | --- | --- | --- | --- | --- | --- | --- | --- | --- | --- | --- | --- | --- | --- | --- | --- |
| COc1ccc(-c2nc3cc(Cl)c(Cl)cc3n2CC(=O)NN=Cc2ccc(OC)c(O)c2)cc1 [Compound 10k, 2-(5,6-Dichloro-2-(4-methoxyphenyl)-1H-benzo[d]imidazol-1-yl)-N'-(3-hydroxy-4-methoxybenzylidene)acetohydrazide] | 22 | 42.2 | 43.4 | 25.3 | 76.1 | 68 | 40.2 | < 5 | 49.9 | 33.9 | 29.1 | 52.2 | 27.4 | 29.3 | 46.8 | 17.3 | 34.7 | 20.1 | 48.1 | 43.8 | inhibition at 10 µM [21]: 62.2%; inhibition at 10 µM [22]: 45.6% |
| COc1ccc(-c2nc3cc(Cl)c(Cl)cc3n2CC(=O)NN=Cc2ccc(O)c(OC)c2)cc1 [Compound 10l, 2-(5,6-Dichloro-2-(4-methoxyphenyl)-1H-benzo[d]imidazol-1-yl)-N'-(4-hydroxy-3-methoxybenzylidene)acetohydrazide] | 31.6 | 32.2 | 51.3 | 30.7 | 70.8 | 65.9 | 18.6 | < 5 | 35.4 | 17.2 | 32.4 | 49.1 | 32.7 | 27.1 | 42.2 | 7.48 | 33 | 25.4 | 47.5 | 46.9 | inhibition at 10 µM [21]: 57.9%; inhibition at 10 µM [22]: 53.7% |
| COC(=O)COc1cc(C=NNC(=O)Cn2c(-c3ccc(OC)cc3)nc3cc(Cl)c(Cl)cc32)ccc1OC [Compound 10o, Methyl-2-(5-((2-(2-(5,6-dichloro-2-(4-methoxyphenyl)-1H-benzo[d]imidazol-1-yl)acetyl)hydrazono)methyl)-2-methoxyphenoxy)acetate] | 22.9 | 129 | 106 | 11.9 | 40.4 | 33.4 | 26.6 | < 5 | 8.33 | 90.1 | 80 | 90.9 | 128 | 69.8 | 45.5 | < 5 | 36.5 | < 5 | 10.2 | 16.9 | inhibition at 10 µM [21]: 6.53%; inhibition at 10 µM [22]: 18.6% |
| COC(=O)COc1ccc(C=NNC(=O)Cn2c(-c3ccc(OC)cc3)nc3cc(Cl)c(Cl)cc32)cc1OC [Compound 10p, Methyl-2-(4-((2-(2-(5,6-dichloro-2-(4-methoxyphenyl)-1H-benzo[d]imidazol-1-yl)acetyl)hydrazono)methyl)-2-methoxyphenoxy)acetate] | 25.1 | 186 | 81.1 | 162 | 13.7 | 25.8 | 24.1 | < 5 | < 5 | 64.6 | 101 | 92.8 | 118 | 143 | 31.9 | 6.03 | < 5 | < 5 | < 5 | 21.1 | inhibition at 10 µM [21]: 6.06%; inhibition at 10 µM [22]: < 5% |
